Data as given in patent publication US8758782B2, “Excipient preservatives and pharmaceutical compositions comprised thereof” (Galderma Research & Development, priority 2007, dated 2014).

How the values were obtained:
[1] = system: Aspergillus niger, reference ATCC 16404; assay: Preservative Efficacy Test (PET), Aspergillus niger; type: cell-based; parameters: key to Moulds, Aspergillus Niger: −: No European pharmacopoeia criterion or USP criterion is met; +: for the coli: the USP criteria are met; ++: the European pharmacopoeia criteria A are met; details: for Moulds, Aspergillus Niger: additive in standard emulsion at its given % (EDTA 0.15, citric acid 2, sodium ascorbate 2, tocopherol 0.05, BHT 1, propyl gallate 0.1, ascorbyl palmitate 1)
Description: (§1) A particular problem that must be solved by the invention is that of effectively protecting a pharmaceutical topical composition while at the same time meeting the criteria required by the European and U.S. pharmacopoeias. This is because, since the purpose of the pharmaceutical composition is to become a pharmaceutical product with a marketing authorization, it is imperative for the composition according to the invention to meet these criteria. In order to verify this point and to determine the antimicrobial action of the various mixtures of excipients according to the invention, a test protocol, known as the PET (Preservative Efficacy Test), exists. The PET comprises artificially inoculating the compositions with a known number of microorganisms, and then determining the decrease in the latter in the compositions tested, at given times. The protocol of this test is set up in order to abide by the recommendations of the European and U.S. pharmacopoeias. […] The mixture of excipients as preservatives, described herein, should therefore meet the criteria of these pharmacopoeias in the PET. This test comprises artificially contaminating aliquots of formulation by means of a calibrated inoculum of specific microorganisms and incubating the same at precise temperatures. Samples are taken from the contaminated aliquots at given time intervals in order to count the microorganisms. Fungi: • Candida albicans, reference ATCC 10231; NCPF 3179; IP 48.72. • Aspergillus niger, reference ATCC 16404; IMI 149007; IP 1431.83. Fungi: • Candida albicans, reference ATCC 10231. • Aspergillus niger, reference ATCC 16404.

[2] = system: Bacteria and fungi (Escherichia coli, Pseudomonas aeruginosa, Staphylococcus aureus, Candida albicans, Aspergillus niger); assay: PET, overall compliance with European and U.S. pharmacopoeia criteria; type: cell-based; details: for Efficacy on the microorganisms as a whole / spectrum of efficacy: additive in standard emulsion; for USP criteria / Bacteria: European pharmacopoeia criteria: 30% by mass in an aqueous solution, without ethanol; for Bacteria: European pharmacopoeia criteria: bacteria only; for Solutions providing antimicrobial protection, Pharma Europe: EtOH concentration / Solutions providing antimicrobial protection, Pharma USP: EtOH concentration: ethanol combined with the humectant; for Solutions providing antimicrobial protection, Pharma Europe: EtOH concentration / Solutions providing antimicrobial protection, Pharma USP: EtOH concentration / Solutions providing antimicrobial protection, Pharma Europe: humectant concentration / Solutions providing antimicrobial protection, Pharma USP: humectant concentration: lotion-type aqueous solution, no preservative; for Solutions providing antimicrobial protection, Pharma Europe: humectant concentration / Solutions providing antimicrobial protection, Pharma USP: humectant concentration: humectant combined with ethanol; for Ethanol concentration to meet European pharmacopoeia criteria A: reduced from 25%; for Ethanol concentration to meet the USP criteria: reduced from 15%
Description: A particular problem that must be solved by the invention is that of effectively protecting a pharmaceutical topical composition while at the same time meeting the criteria required by the European and U.S. pharmacopoeias. This is because, since the purpose of the pharmaceutical composition is to become a pharmaceutical product with a marketing authorization, it is imperative for the composition according to the invention to meet these criteria. In order to verify this point and to determine the antimicrobial action of the various mixtures of excipients according to the invention, a test protocol, known as the PET (Preservative Efficacy Test), exists. The PET comprises artificially inoculating the compositions with a known number of microorganisms, and then determining the decrease in the latter in the compositions tested, at given times. The protocol of this test is set up in order to abide by the recommendations of the European and U.S. pharmacopoeias. The test and also the recommendations of the European and U.S. pharmacopoeias are described in Example 1 to follow. The mixture of excipients as preservatives, described herein, should therefore meet the criteria of these pharmacopoeias in the PET.
This test comprises artificially contaminating aliquots of formulation by means of a calibrated inoculum of specific microorganisms and incubating the same at precise temperatures. Samples are taken from the contaminated aliquots at given time intervals in order to count the microorganisms.
It also makes it obligatory to study the reductions in population of the microorganisms introduced into the formulation according to two acceptability criteria.
Since the A criteria are the most strict, it are […] generally required that they be met.
In justified cases, when the A criteria cannot be complied with, for example owing to an increase in the risk of adverse reactions, the B criteria, which are less drastic, apply.
NI (Non-Increase) signifies that there must not be an increase in the number of microorganisms.
It imposes logarithmic reductions in the population of microorganisms which are different than that of the European pharmacopoeia.

[3] = system: Escherichia coli, reference ATCC 8739; assay: Preservative Efficacy Test (PET), Escherichia coli; type: cell-based; parameters: key to Gram− bacterium, Esoherichia coli: −: No European pharmacopoeia criterion or USP criterion is met; +: for the coli: the USP criteria are met; ++: the European pharmacopoeia criteria A are met; details: additive in standard emulsion
Description: (§2) A particular problem that must be solved by the invention is that of effectively protecting a pharmaceutical topical composition while at the same time meeting the criteria required by the European and U.S. pharmacopoeias. This is because, since the purpose of the pharmaceutical composition is to become a pharmaceutical product with a marketing authorization, it is imperative for the composition according to the invention to meet these criteria. In order to verify this point and to determine the antimicrobial action of the various mixtures of excipients according to the invention, a test protocol, known as the PET (Preservative Efficacy Test), exists. The PET comprises artificially inoculating the compositions with a known number of microorganisms, and then determining the decrease in the latter in the compositions tested, at given times. The protocol of this test is set up in order to abide by the recommendations of the European and U.S. pharmacopoeias. […] The mixture of excipients as preservatives, described herein, should therefore meet the criteria of these pharmacopoeias in the PET. This test comprises artificially contaminating aliquots of formulation by means of a calibrated inoculum of specific microorganisms and incubating the same at precise temperatures. Samples are taken from the contaminated aliquots at given time intervals in order to count the microorganisms. Bacteria: • Escherichia coli, reference ATCC 8739. • Pseudomonas aeruginosa, reference ATCC 9027. • Staphylococcus aureus, reference ATCC 6538.

[4] = system: Staphylococcus aureus, reference ATCC 6538; assay: Preservative Efficacy Test (PET), Staphylococcus aureus; type: cell-based; parameters: key to Gram+ bacterium, Staphylococcus aureus: −: No European pharmacopoeia criterion or USP criterion is met; +: for the coli: the USP criteria are met; ++: the European pharmacopoeia criteria A are met; details: additive in standard emulsion
Description: as §2, with “Bacteria: • Pseudomonas aeruginosa, reference ATCC 9027; NCIMB 8626; CIP 82.118. • Staphylococcus aureus, reference ATCC 6538; NCTC 10788; NCIMB 9518; CIP 4.83. Bacteria: • Escherichia coli,” for “Bacteria: • Escherichia coli,”

[5] = system: Candida albicans, reference ATCC 10231; assay: Preservative Efficacy Test (PET), Candida albicans; type: cell-based; parameters: key to Yeast, Candida albicans: −: No European pharmacopoeia criterion or USP criterion is met; +: for the coli: the USP criteria are met; ++: the European pharmacopoeia criteria A are met; details: additive in standard emulsion
Description: as §1

[6] = system: Pseudomonas aeruginosa, reference ATCC 9027; assay: Preservative Efficacy Test (PET), Pseudomonas aeruginosa; type: cell-based; parameters: key to Gram− bacterium, Pseudomonas aeruginosa: −: No European pharmacopoeia criterion or USP criterion is met; +: for the coli: the USP criteria are met; ++: the European pharmacopoeia criteria A are met; details: additive in standard emulsion
Description: as §2, with “Bacteria: • Pseudomonas aeruginosa, reference ATCC 9027; NCIMB 8626; CIP 82.118. • Staphylococcus aureus, reference ATCC 6538; NCTC 10788; NCIMB 9518; CIP 4.83. Bacteria: • Escherichia coli,” for “Bacteria: • Escherichia coli,”

[7] = system: microorganisms; details: J. J. Kabara; cited from earlier work
[8] = system: Candida albicans; details: cited from earlier work
[9] = system: Aspergillus niger; details: cited from earlier work

Compound: CCCCCCCCCCCCCCCC(=O)OC[C@H](O)[C@H]1OC(=O)C(O)=C1O [Ascorbyl palmitate]
- Moulds, Aspergillus Niger [1]: −
- Efficacy on the microorganisms as a whole / spectrum of efficacy [2]: bactericidal
- Gram− bacterium, Esoherichia coli [3]: +
- Gram+ bacterium, Staphylococcus aureus [4]: ++
- Yeast, Candida albicans [5]: −
- Gram− bacterium, Pseudomonas aeruginosa [6]: ++

Compound: Cc1cc(C(C)(C)C)c(O)c(C(C)(C)C)c1 [BHT, butylhydroxytoluene]
- Moulds, Aspergillus Niger [1]: −
- Gram− bacterium, Esoherichia coli [3]: −
- Gram+ bacterium, Staphylococcus aureus [4]: −
- Yeast, Candida albicans [5]: −
- Gram− bacterium, Pseudomonas aeruginosa [6]: −

Compound: O.O.O=C([O-])CN(CCN(CC(=O)O)CC(=O)O)CC(=O)[O-].[Na+].[Na+] [EDTA, Disodium EDTA Dihydrate]
- Moulds, Aspergillus Niger [1]: −
- Gram− bacterium, Esoherichia coli [3]: −
- Gram+ bacterium, Staphylococcus aureus [4]: −
- Yeast, Candida albicans [5]: −
- Gram− bacterium, Pseudomonas aeruginosa [6]: ++
- Inhibition of Pseudomonas aeruginosa, criteria met [6]: meeting European pharmacopoeia criteria A

Compound: CC(O)CO (centres unmarked) [PG, Propylene glycol]
- Action on fungi, in particular Aspergillus niger ([1]; humectant alone, without ethanol): does not ensure a decrease in these microorganisms
- USP criteria [2]: makes it possible to meet
- Bacteria: European pharmacopoeia criteria [2]: meeting European pharmacopoeia criteria A
- Solutions providing antimicrobial protection, Pharma Europe: EtOH concentration [2]: starting from 15%
- Solutions providing antimicrobial protection, Pharma USP: EtOH concentration [2]: starting from 0% EtOH
- Solutions providing antimicrobial protection, Pharma Europe: humectant concentration [2]: starting from 5% PG
- Solutions providing antimicrobial protection, Pharma USP: humectant concentration [2]: starting from 30% PG
- Ethanol concentration to meet European pharmacopoeia criteria A ([2]; with 10% of PG): 15%

Compound: CCCOC(=O)c1cc(O)c(O)c(O)c1 [Propyl gallate]
- Moulds, Aspergillus Niger [1]: −
- Gram− bacterium, Esoherichia coli [3]: −
- Gram+ bacterium, Staphylococcus aureus [4]: −
- Yeast, Candida albicans [5]: −
- Gram− bacterium, Pseudomonas aeruginosa [6]: ++
- Inhibition of Pseudomonas aeruginosa, criteria met [6]: meeting European pharmacopoeia criteria A

Compound: O=C1O[C@H]([C@@H](O)CO)C([O-])=C1O.[Na+] [Sodium ascorbate]
- Moulds, Aspergillus Niger [1]: −
- Action on Escherichia coli, criteria met [3]: meeting the USP criteria
- Gram− bacterium, Esoherichia coli [3]: +
- Action on Staphylococcus aureus, criteria met [4]: meeting European pharmacopoeia criteria A
- Gram+ bacterium, Staphylococcus aureus [4]: ++
- Yeast, Candida albicans [5]: −
- Gram− bacterium, Pseudomonas aeruginosa [6]: −

Compound: CCO [ethanol]
- Ethanol concentration in the aqueous mixture from which the bactericidal action meets European pharmacopoeia criteria A and the USP criteria ([2]; ethanol/water, bacteria): ≥ 15%
- Ethanol concentration at which the fungicidal action meets the requirements for all the pharmacopoeias ([2]; ethanol/water, fungi): 25%
- Ethanol concentration starting from which proliferation of microorganisms can be prevented [7]: ≥ 25 % (v/v)

Compound: OCC(O)CO [glycerol]
- USP criteria [2]: does not meet
- Bacteria: European pharmacopoeia criteria [2]: meet only European pharmacopoeia criteria B for bacteria
- Solutions providing antimicrobial protection, Pharma Europe: EtOH concentration [2]: starting from 15%
- Solutions providing antimicrobial protection, Pharma USP: EtOH concentration [2]: starting from 5% EtOH
- Solutions providing antimicrobial protection, Pharma Europe: humectant concentration [2]: starting from 5%
- Solutions providing antimicrobial protection, Pharma USP: humectant concentration [2]: starting from 10%
- Ethanol concentration to meet European pharmacopoeia criteria A ([2]; with 5% by mass of glycerol): 15%
- Ethanol concentration to meet the USP criteria ([2]; with 10% by mass of glycerol): 5%

Compound: COC(=O)c1ccc(O)cc1 [methylparaben]
- Concentration that makes it possible to inhibit Candida albicans [8]: 1000 ppm
- Concentration that makes it possible to inhibit Aspergillus niger [9]: 1000 ppm

Compound: CCCOC(=O)c1ccc(O)cc1 [propylparaben]
- Concentration that makes it possible to inhibit Candida albicans [8]: 250 ppm
- Concentration that makes it possible to inhibit Aspergillus niger [9]: 250 ppm

Compound: Polyethylene Glycol 400 [PEG 400]
- Solutions providing antimicrobial protection, Pharma Europe: EtOH concentration [2]: starting from 10%
- Solutions providing antimicrobial protection, Pharma USP: EtOH concentration [2]: starting from 5% EtOH
- Solutions providing antimicrobial protection, Pharma Europe: humectant concentration [2]: starting from 20%
- Solutions providing antimicrobial protection, Pharma USP: humectant concentration [2]: starting from 20% PEG
- Ethanol concentration to meet the USP criteria ([2]; with 20% by mass of PEG 400): 5%
- Ethanol concentration to meet European pharmacopoeia criteria A ([2]; with 20% by mass of PEG 400): 10%

Compound: Tocopherol
- Moulds, Aspergillus Niger [1]: −
- Efficacy on the microorganisms as a whole / spectrum of efficacy [2]: do not have a significant efficacy
- Gram− bacterium, Esoherichia coli [3]: −
- Gram+ bacterium, Staphylococcus aureus [4]: −
- Yeast, Candida albicans [5]: −
- Gram− bacterium, Pseudomonas aeruginosa [6]: −
